For assay [1], the system named is Staphylococcus aureus. Description: Antimicrobial activity against Staphylococcus aureus ATCC 29213 assessed as inhibition of visible growth of bacteria incubated for 20 hrs by broth microdilution method. Format: functional. A general note: Dilution methods test growth across graded concentrations, often in twofold steps.
Assay [2] has as its system Enterococcus faecium. Description: Antimicrobial activity against Enterococcus faecium QF31 harboring erythromycin resistance rRNA methylase B and chloramphenicol-florfenicol resistance methylase assessed as inhibition of visible growth of bacteria incubated for 20 hrs by broth microdilution method. The format is functional.
Assay [3] concerns Enterococcus faecalis. Briefly: microbe, parasite or virus in culture. To be noted: SF23-1, time 20 hrs. Format: functional.
Description: Antimicrobial activity against Enterococcus faecalis SF23-1 harboring erythromycin-resistance rRNA methylase B, tetracycline efflux protein L and chloramphenicol-florfenicol resistance methylase assessed as inhibition of visible growth of bacteria incubated for 20 hrs by broth microdilution method
Assay [4] has as its system Streptococcus suis. Description: Antimicrobial activity against Streptococcus suis P1/7 assessed as inhibition of visible growth of bacteria incubated for 20 hrs by broth microdilution method. Format: functional.
For assay [5], the system named is Staphylococcus aureus. Description: Antimicrobial activity against Staphylococcus aureus YZSA-15 harboring erythromycin resistance rRNA methylase C and vancomycin resistance locus assessed as inhibition of visible growth of bacteria incubated for 20 hrs by broth microdilution method. The format is functional.
Assay [6] has as its system Staphylococcus aureus. Description: Antimicrobial activity against Staphylococcus aureus YZSA-21 harboring erythromycin resistance rRNA methylase C assessed as inhibition of visible growth of bacteria incubated for 20 hrs by broth microdilution method. The format is functional.
The test system of assay [7] is Staphylococcus aureus. Briefly: Antimicrobial activity against Staphylococcus aureus YZSA-24 harboring erythromycin resistance rRNA methylase C and methicillin resistance gene resistance locus assessed as inhibition of visible growth of bacteria incubated for 20 hrs by broth microdilution method. Format: functional.
Assay [8] deals with Staphylococcus aureus. Briefly: microbe, parasite or virus in culture. Format: functional. To be noted: M92-1, time 20 hrs.
Description: Antimicrobial activity against Staphylococcus aureus M92-1 harboring erythromycin resistance rRNA methylase B, tetracycline efflux protein L and oxazolidinone-phenicol transferable resistance gene assessed as inhibition of visible growth of bacteria incubated for 20 hrs by broth microdilution method
Assay [9] relates to Staphylococcus aureus. Description: microbe, parasite or virus in culture. The format is functional. To be noted: M147-2, time 20 hrs.
Description: Antimicrobial activity against Staphylococcus aureus M147-2 harboring erythromycin resistance rRNA methylase B, tetracycline efflux protein L and chloramphenicol-florfenicol resistance methylase assessed as inhibition of visible growth of bacteria incubated for 20 hrs by broth microdilution method
In assay [10] the test system is Enterococcus faecium. Description: Antimicrobial activity against Enterococcus faecium HFY01 assessed as inhibition of visible growth of bacteria incubated for 20 hrs by broth microdilution method. Format: functional.
In assay [11] the test system is Enterococcus faecium. Briefly: Antimicrobial activity against Enterococcus faecium MC38 harboring erythromycin resistance rRNA methylase B and oxazolidinone-phenicol transferable resistance gene assessed as inhibition of visible growth of bacteria incubated for 20 hrs by broth microdilution method. Format: functional.
Assay [12] relates to Enterococcus faecalis. Description: Antimicrobial activity against Enterococcus faecalis JH2-2 assessed as inhibition of visible growth of bacteria incubated for 20 hrs by broth microdilution method. The format is functional.
The test system of assay [13] is Enterococcus faecalis. Briefly: Antimicrobial activity against Enterococcus faecalis ES01 harboring erythromycin-resistance rRNA methylase B and vanB-type vancomycin-resistance locus assessed as inhibition of visible growth of bacteria incubated for 20 hrs by broth microdilution method. The format is functional.
Assay [14] deals with Enterococcus faecalis. Briefly: Antimicrobial activity against Enterococcus faecalis J2 harboring erythromycin-resistance rRNA methylase B and oxazolidinone phenicol transferable resistance gene assessed as inhibition of visible growth of bacteria incubated for 20 hrs by broth microdilution method. The format is functional.
For assay [15], the system named is Streptococcus suis. Description: microbe, parasite or virus in culture. The format is functional. The settings on record: SH0918, time 20 hrs.
Description: Antimicrobial activity against Streptococcus suis SH0918 harboring erythromycin-resistance rRNA methylase B, tetracycline efflux protein O and oxazolidinone phenicol transferable resistance gene assessed as inhibition of visible growth of bacteria incubated for 20 hrs by broth microdilution method
The test system of assay [16] is Streptococcus pyogenes. Description: Antimicrobial activity against Streptococcus pyogenes DL02 harboring erythromycin-resistance rRNA methylase B assessed as inhibition of visible growth of bacteria incubated for 20 hrs by broth microdilution method. The format is functional.
For assay [17], the system named is Streptococcus agalactiae. Briefly: Antimicrobial activity against Streptococcus agalactiae DL03 harboring erythromycin-resistance rRNA methylase B assessed as inhibition of visible growth of bacteria incubated for 20 hrs by broth microdilution method. Format: functional.
Assay [18] deals with Escherichia coli. Description: Antimicrobial activity against Escherichia coli ATCC 25922 assessed as inhibition of visible growth of bacteria incubated for 20 hrs by broth microdilution method. The format is functional.
Assay [19] concerns Salmonella enteritidis. Briefly: Antimicrobial activity against Salmonella enteritis S1 assessed as inhibition of visible growth of bacteria incubated for 20 hrs by broth microdilution method. The format is functional, Salmonella enterica subsp. enterica serovar Enteritidis. The settings on record: Salmonella enterica.
Assay [20] relates to Klebsiella pneumoniae. Briefly: Antimicrobial activity against Klebsiella pneumoniae 9-1 assessed as inhibition of visible growth of bacteria incubated for 20 hrs by broth microdilution method. Format: functional.
The test system of assay [21] is Acinetobacter baumannii. Briefly: Antimicrobial activity against Acinetobacter baumannii AB11 assessed as inhibition of visible growth of bacteria incubated for 20 hrs by broth microdilution method. Format: functional.
For assay [22], the system named is Acinetobacter baumannii. Briefly: Antimicrobial activity against Acinetobacter baumannii 7979 assessed as inhibition of visible growth of bacteria incubated for 20 hrs by broth microdilution method. Format: functional.
Assay [23] concerns Pseudomonas aeruginosa. Description: Antimicrobial activity against Pseudomonas aeruginosa PA01 assessed as inhibition of visible growth of bacteria incubated for 20 hrs by broth microdilution method. The format is functional.
In assay [24] the test system is Pseudomonas aeruginosa. Description: Antimicrobial activity against Pseudomonas aeruginosa PA14 assessed as inhibition of visible growth of bacteria incubated for 20 hrs by broth microdilution method. Format: functional.
The subject of assay [25] is Staphylococcus aureus. Briefly: Antibacterial activity against methicillin-resistant Staphylococcus aureus YZSA-24 infected in cyclophosphamide-induced neutrophil depleted female ICR mouse model of skin infection assessed as log reduction in bacterial load at 1 %, TOP preadministered with cyclophosphamide for 5 days followed by bacterial administration and measured after 25 hrs of compound administration relative to vehicle group. The format is functional.

Structures are written as SMILES. Converted amounts (≈) assume the structure as drawn. Bounds are passed on as bounds.

With `CCC[C@@H]1C[C@@H](C(=O)N[C@@H]([C@H]2O[C@H](SC)[C@H](O)[C@@H](O)[C@H]2O)[C@H](C)Cl)N(C)C1` [CLINDAMYCIN], the MIC in [1] is 0.125 µg/mL (≈ 0.294 µM); in [2], more than 32 µg/mL; in assay [3], more than 32 µg/mL; in assay [4], 0.125 µg/mL (≈ 0.294 µM); in assay [5], more than 32 µg/mL; in [6] it was more than 32 µg/mL. The MIC in assay [7] is more than 32 µg/mL; in assay [8] it was more than 32 µg/mL; in [9] it was more than 32 µg/mL; in assay [10], 0.5 µg/mL (≈ 1.18 µM); in assay [11], more than 32 µg/mL; in assay [12], 0.5 µg/mL (≈ 1.18 µM). The MIC in assay [13], in [14], in assay [15], in assay [16], in assay [17] and in assay [18] was more than 32 µg/mL each time. In addition, the MIC in assay [19] was more than 32 µg/mL; in assay [20], more than 32 µg/mL; in assay [21], 0.5 µg/mL (≈ 1.18 µM); in assay [22] it was more than 32 µg/mL; in assay [23], more than 32 µg/mL; in assay [24], more than 32 µg/mL.
In the case of `C[C@H]1c2cccc(O)c2C(=O)C2=C(O)[C@]3(O)C(=O)C(C(N)=O)=C(O)[C@@H](N(C)C)[C@@H]3[C@@H](O)[C@@H]21` [DOXYCYCLINE ANHYDROUS], the MIC was determined as 0.25 µg/mL (≈ 0.563 µM) in assay [1]; 16 µg/mL (≈ 36 µM) in [2]; 16 µg/mL (≈ 36 µM) in assay [3]; 0.125 µg/mL (≈ 0.281 µM) in [4]; 0.25 µg/mL (≈ 0.563 µM) in assay [5]; 0.25 µg/mL (≈ 0.563 µM) in assay [6]. The MIC in assay [7] is 0.5 µg/mL (≈ 1.13 µM); in [8], more than 32 µg/mL; in assay [9] it was more than 32 µg/mL; in assay [10], less than 0.06 µg/mL; in assay [11], 16 µg/mL (≈ 36 µM); in assay [12], 4 µg/mL (≈ 9 µM). For the same compound, the MIC was 2 µg/mL (≈ 4.5 µM) in assay [13]; 8 µg/mL (≈ 18 µM) in [14]; 16 µg/mL (≈ 36 µM) in assay [15]; 2 µg/mL (≈ 4.5 µM) in assay [16]; less than 0.06 µg/mL in [17]; 1 µg/mL (≈ 2.25 µM) in assay [18]. Also, the MIC in assay [19] was more than 32 µg/mL; in [20], more than 32 µg/mL; in assay [21], less than 0.06 µg/mL; in assay [22], more than 32 µg/mL; in [23], 8 µg/mL (≈ 18 µM); in assay [24], 16 µg/mL (≈ 36 µM).
In the case of `CC(=O)NC[C@H]1CN(c2ccc(N3CCOCC3)c(F)c2)C(=O)O1` [LINEZOLID], the MIC in [1] turned out to be 1 µg/mL (≈ 2.96 µM); in assay [2] it was 2 µg/mL (≈ 5.93 µM); in [4], 0.125 µg/mL (≈ 0.371 µM); in [5], 0.5 µg/mL (≈ 1.48 µM); in assay [6], 1 µg/mL (≈ 2.96 µM); in [7] it was 0.5 µg/mL (≈ 1.48 µM). Also, the MIC in assay [8] amounted to 8 µg/mL (≈ 23.7 µM); in [9], 8 µg/mL (≈ 23.7 µM); in assay [10], 2 µg/mL (≈ 5.93 µM); in assay [11], 2 µg/mL (≈ 5.93 µM); in assay [12] it was 0.5 µg/mL (≈ 1.48 µM); in assay [15] it was 8 µg/mL (≈ 23.7 µM). For the same compound, the MIC was less than 0.06 µg/mL in assay [16] and 1 µg/mL (≈ 2.96 µM) in [17]. Besides, the Activity in assay [25] was found to be 4.05 log10CFU/ml.

The values are drawn from ChEMBL document CHEMBL6078677, “Discovery and optimization of tetrahydroacridine derivatives as a novel class of antibiotics against multidrug-resistant Gram-positive pathogens by targeting type I signal peptidase and disrupting bacterial membrane” (Eur J Med Chem, 2025).
